Measured values from ChEMBL document CHEMBL1132382 (J Med Chem, 1999).

Key:
Carbonic anhydrase 4 = target: T1, Carbonic anhydrase 4 (Bos taurus, UniProt Q95323)
T1 sequence (Q95323 whole entry): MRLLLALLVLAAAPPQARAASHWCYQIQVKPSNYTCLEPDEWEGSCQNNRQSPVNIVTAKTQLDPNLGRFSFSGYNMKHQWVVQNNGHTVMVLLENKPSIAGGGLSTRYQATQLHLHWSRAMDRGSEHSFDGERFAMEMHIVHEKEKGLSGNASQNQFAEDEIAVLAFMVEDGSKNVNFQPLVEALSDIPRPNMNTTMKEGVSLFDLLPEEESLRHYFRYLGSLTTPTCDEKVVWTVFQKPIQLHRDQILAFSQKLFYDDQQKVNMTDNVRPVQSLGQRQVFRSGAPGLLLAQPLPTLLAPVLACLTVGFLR
Description: Inhibitory activity against bovine carbonic anhydrase IV (CA4), isolated from bovine lung microsomes

Carbonic anhydrase 1 = Carbonic anhydrase 1 (Homo sapiens, UniProt P00915)
Chain of Carbonic anhydrase 1 (P00915 whole entry): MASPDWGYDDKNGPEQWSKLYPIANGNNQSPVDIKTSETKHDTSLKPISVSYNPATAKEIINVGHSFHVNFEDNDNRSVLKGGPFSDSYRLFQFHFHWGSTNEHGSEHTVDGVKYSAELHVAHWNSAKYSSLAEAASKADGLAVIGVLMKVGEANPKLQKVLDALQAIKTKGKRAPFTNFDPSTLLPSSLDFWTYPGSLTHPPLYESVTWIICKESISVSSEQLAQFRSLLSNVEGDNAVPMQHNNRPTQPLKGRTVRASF
Description: Inhibitory activity against human recombinant carbonic anhydrase I (CA1)

[1] = not given; remark: listed apart in the source
[2] = octanol/water
Description: Partition coefficient (logD) (chloroform/buffer)

Ki (Carbonic anhydrase 4)	Ki (Carbonic anhydrase 1)	kin	kin [1]	logD [2]	Structure (SMILES)
74 nM	965 nM	–	–	–	CNCC(=O)NCc1ccc(S(N)(=O)=O)cc1
66 nM	54 nM	–	–	–	NCC(=O)NCC(=O)Nc1ccc(S(=O)(=O)Nc2ccc(S(N)(=O)=O)cc2)cc1
78 nM	600 nM	–	–	–	NCC(=O)Nc1ccc(S(N)(=O)=O)cc1Cl
46 nM	540 nM	–	–	–	NCC(=O)Nc1ccc(S(N)(=O)=O)cc1F
280 nM	22000 nM	–	–	–	CNCC(=O)NNc1ccc(S(N)(=O)=O)cc1
154 nM	15000 nM	–	–	–	NCC(=O)NCC(=O)Nc1ccc(S(N)(=O)=O)cc1
140 nM	14600 nM	–	–	–	CN(CC(=O)Nc1ccc(S(N)(=O)=O)cc1)C(=N)N
69 nM	545 nM	–	–	–	CN(CC(=O)Nc1ccc(S(N)(=O)=O)cc1I)C(=N)N
70 nM	820 nM	–	–	–	CNCC(=O)NCCc1ccc(S(N)(=O)=O)cc1
74 nM	610 nM	–	–	–	NCC(=O)Nc1ccc(S(N)(=O)=O)cc1I
62 nM	12 nM	–	–	–	NCC(=O)NCC(=O)NS(=O)(=O)c1nc2ccc(O)cc2s1
46 nM	500 nM	–	–	–	CNCC(=O)Nc1ccc(S(N)(=O)=O)cc1F
62 nM	510 nM	–	–	–	CNCC(=O)Nc1ccc(S(N)(=O)=O)cc1Cl
71 nM	590 nM	–	–	–	NCC(=O)NCC(=O)Nc1ccc(S(N)(=O)=O)cc1I
53 nM	44 nM	–	–	–	Nc1ccc(S(=O)(=O)Nc2cccc(S(N)(=O)=O)c2)cc1
35 nM	98 nM	–	–	–	CCN(C(=O)CN)C1CC(C)S(=O)(=O)c2sc(S(N)(=O)=O)cc21 (stereo unspecified)
50 nM	–	–	–	–	Nc1ccc(S(=O)(=O)Nc2ccc(S(N)(=O)=O)cc2)cc1
11 nM	9 nM	–	–	–	CN(CC(=O)NS(=O)(=O)c1nc2ccc(OCCO)cc2s1)C(=N)N
240 nM	23500 nM	–	–	–	NCC(=O)NCC(=O)Nc1ccccc1S(N)(=O)=O
0.8 nM	1 nM	–	–	–	Cn1nc(S(N)(=O)=O)s/c1=N\S(=O)(=O)c1ccc(N)cc1
86 nM	62 nM	–	–	–	NCC(=O)Nc1ccc(S(=O)(=O)Nc2ccc(S(N)(=O)=O)cc2)cc1
–	11 nM	–	–	–	CN(CC(=O)Nc1ccc(S(=O)(=O)/N=c2\sc(S(N)(=O)=O)nn2C)cc1)C(=N)N
69 nM	60 nM	–	–	–	NCC(=O)NCC(=O)Nc1nccc(Nc2ccc(S(N)(=O)=O)cc2)n1

Ki (Carbonic anhydrase 4)	Ki (Carbonic anhydrase 1)	kin	kin [1]	logD [2]	Structure (SMILES)
195 nM	16600 nM	–	–	–	CNCC(=O)Nc1cccc(S(N)(=O)=O)c1
62 nM	525 nM	–	–	–	CN(CC(=O)Nc1ccc(S(N)(=O)=O)cc1Br)C(=N)N
205 nM	20300 nM	–	–	–	CNCC(=O)Nc1ccccc1S(N)(=O)=O
–	13 nM	–	–	–	Cn1nc(S(N)(=O)=O)s/c1=N\S(=O)(=O)c1ccc(NC(=O)CNC(=O)CN)cc1
12 nM	21 nM	–	–	–	NCC(=O)NCC(=O)NCCC(=O)Nc1nnc(S(N)(=O)=O)s1
14 nM	10 nM	–	–	–	CNCC(=O)Nc1ccc2nc(S(N)(=O)=O)sc2c1
60 nM	510 nM	–	–	–	CN(CC(=O)Nc1ccc(S(N)(=O)=O)cc1Cl)C(=N)N
155 nM	1700 nM	–	–	–	NCC(=O)NS(=O)(=O)c1ccc(CCO)cc1
245 nM	25000 nM	–	–	–	NCC(=O)Nc1ccccc1S(N)(=O)=O
146 nM	15000 nM	–	–	–	CNCC(=O)Nc1ccc(S(N)(=O)=O)cc1
45 nM	540 nM	–	–	–	NCC(=O)NCC(=O)Nc1ccc(S(N)(=O)=O)cc1F
51 nM	525 nM	–	–	–	CN(CC(=O)Nc1c(S(N)(=O)=O)cc(S(N)(=O)=O)c(Cl)c1Cl)C(=N)N
–	15 nM	–	–	–	Cn1nc(S(N)(=O)=O)s/c1=N\S(=O)(=O)c1ccc(NC(=O)CN)cc1
86 nM	1000 nM	–	–	–	CN(CC(=O)NS(=O)(=O)c1ccc(CCO)cc1)C(=N)N
62 nM	520 nM	–	–	–	NCC(=O)Nc1c(S(N)(=O)=O)cc(S(N)(=O)=O)c(Cl)c1Cl
79 nM	60 nM	–	–	–	NCC(=O)Nc1ccc(S(=O)(=O)Nc2cccc(S(N)(=O)=O)c2)cc1
64 nM	16 nM	–	–	–	NCC(=O)NCC(=O)Nc1ccc2nc(S(N)(=O)=O)sc2c1
72 nM	17 nM	–	–	–	NCC(=O)Nc1ccc2nc(S(N)(=O)=O)sc2c1
5 nM	12 nM	–	–	–	CN(CC(=O)Nc1ccc(S(=O)(=O)Nc2nnc(S(N)(=O)=O)s2)cc1)C(=N)N
30 nM	11 nM	–	–	–	CNCC(=O)NS(=O)(=O)c1nc2ccc(O)cc2s1
154 nM	–	–	–	–	Nc1nccc(Nc2ccc(S(N)(=O)=O)cc2)n1
–	–	1.9 h⁻¹	13 h⁻¹	0.06	CC(=O)/N=c1/sc(S(N)(=O)=O)nn1C [METHAZOLAMIDE]
